Results: patent US12291533B2, “Substituted fused pyrimidine compounds and uses thereof” (Northwestern University, priority 2017, dated 2025)

Target: T1, glucocerebrosidase (Homo sapiens, UniProt P04062)
T1 sequence (P04062 40-536): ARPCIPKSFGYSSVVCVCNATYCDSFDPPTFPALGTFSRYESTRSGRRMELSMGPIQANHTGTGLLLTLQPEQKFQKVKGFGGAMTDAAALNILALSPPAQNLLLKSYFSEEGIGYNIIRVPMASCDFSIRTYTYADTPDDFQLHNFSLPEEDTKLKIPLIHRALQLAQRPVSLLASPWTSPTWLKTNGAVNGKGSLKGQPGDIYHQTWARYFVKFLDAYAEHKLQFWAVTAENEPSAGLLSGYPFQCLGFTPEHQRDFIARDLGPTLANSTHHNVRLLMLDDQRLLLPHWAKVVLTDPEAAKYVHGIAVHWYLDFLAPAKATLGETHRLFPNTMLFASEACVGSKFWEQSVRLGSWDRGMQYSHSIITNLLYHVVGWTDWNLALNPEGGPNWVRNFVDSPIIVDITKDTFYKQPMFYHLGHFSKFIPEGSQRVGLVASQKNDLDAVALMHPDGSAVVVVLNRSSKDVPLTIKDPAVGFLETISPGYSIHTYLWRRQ
Test: Glucocerebrosidase activity assay with blue substrate (4MU-Glc)
Type: biochemical
Settings: Table 1, 7.5 nM enzyme, 1.5 mM 4MU-Glc, 30 min at 37° C.; for AC50: titration 24 nM to 50 μM
Method: Example 2—Glucocerebrosidase Activity Assay with Blue Substrate
The compounds in DMSO solution 0.5 μL/well were transferred to a black 96-well plate (the final titration was 24 nM to 50 μM, 12 concentrations, 2× dilution). 33.5 μL enzyme solution (7.5 nM final concentration) was transferred to the wells. After 5 min of incubation at room temperature, the enzyme reaction was initiated by the addition of 33 μL/well blue substrate. Final concentration of the blue substrate (4MU-Glc) was 1.5 mM. The blue substrate reaction was terminated by the addition of 33 μL/well stop solution (1 M NaOH and 1 M glycine mixture, pH 10) after 30 min of incubation at 37° C. The fluorescence was then measured in the Biotek Synergy H1 multi-mode plate reader with Ex=365 nm and Em=440 nm.
Additional compounds were synthesized and tested for glucocerebrosidase modulatory activity as described in Example 1 and Example 2.

Row | SMILES | Emax [%] | AC50 [µM]
1 | CN(C[C@H]1COc2ccccc2O1)c1nc(-c2cccnc2)nc2ccccc12 [Compound 9, (S)—N-((2,3-dihydrobenzo[b][1,4]dioxin-2-yl)methyl)-N-methyl-2-(pyridin-3-yl)quinazolin-4-amine] | 645 | 1.49
2 | CN(C[C@H]1COc2ccccc2O1)c1nc(-c2cccnc2)nc2c1cnn2C [Compound 10] | 573 | 1.38
3 | CN(C[C@H]1COc2ccccc2O1)c1nc(-c2cccnc2)nc2ncccc12 [Compound 11] |  | 3.83
4 | CN(C[C@@H]1COc2ccccc2O1)c1nc(-c2cccnc2)nc2ccccc12 [Compound 12] | 220 | 2.67
5 | CN(CCOc1ccccc1)c1nc(-c2cccnc2)nc2ccccc12 [Compound 13] | 750 | 3.55
6 | CCN(CCOc1ccccc1)c1nc(-c2cccnc2)nc2ccccc12 [Compound 14] | 430 | 5.01
7 | CCCN(CCOc1ccccc1)c1nc(-c2cccnc2)nc2ccccc12 [Compound 15] | 130 | 3.12
8 | CN(CCOc1ccccc1)c1nc(-c2ccc(Cl)nc2)nc2ccccc12 [Compound 17] | 190 | 1.58
9 | O=C(O)CCCCCCCN(CCOc1ccccc1)c1nc(-c2cccnc2)nc2ccccc12 [Compound 19] | 150 | 1.78
10 | O=C(CCCCCCCN(CCOc1ccccc1)c1nc(-c2cccnc2)nc2ccccc12)ON1C(=O)CCC1=O [Compound 20] | 500 | 1.26
11 | CN(CCOc1ccc(CCc2ccccc2)cc1)c1nc(-c2cccnc2)nc2ccccc12 [Compound 21] | 180 | 15.8
12 | c1ccc(OC2CCN(c3nc(-c4cccnc4)nc4ccccc34)C2)cc1 (stereo not drawn) [Compound 22] | 300 | 1.58
13 | Cc1cccc(OCCN(C)c2nc(-c3cccnc3)nc3ccccc23)c1 [Compound 23] | 500 | 3.55
14 | c1ccc(OCCOc2nc(-c3cccnc3)nc3ccccc23)cc1 [Compound 24] | 140 | 3.16
15 | c1ccc(O[C@H]2CCCN(c3nc(-c4cccnc4)nc4ccccc34)C2)cc1 [Compound 25] | 220 | 3.98
16 | c1ccc(O[C@@H]2CCCN(c3nc(-c4cccnc4)nc4ccccc34)C2)cc1 [Compound 26] | 225 | 1.78
17 | Cc1cc(C)cc(OCCN(C)c2nc(-c3cccnc3)nc3ccccc23)c1 [Compound 27] | 225 | 3.98
18 | Cc1ccccc1OCCN(C)c1nc(-c2cccnc2)nc2ccccc12 [Compound 28] | 350 | 3.16
19 | CN(CCOC(C)(C)C)c1nc(-c2cccnc2)nc2ccccc12 [Compound 29] | 180 | 39.8
20 | CN(CCc1c[nH]c2ccccc12)c1nc(-c2cccnc2)nc2ccccc12 [Compound 30] | 250 | 5.01
21 | CN(CCOc1ccccc1)c1nc(-c2cncc(Cl)c2)nc2ccccc12 [Compound 32] | 250 | 1.21

Row | SMILES | Emax [%] | AC50 [µM]
22 | C#Cc1ccc(OCCN(C)c2nc(-c3cccnc3)nc3ccccc23)cc1 [Compound 33] | 190 | 2.82
23 | CN(CCOc1ccccc1)c1nc(-c2cccnc2F)nc2ccccc12 [Compound 34] | 160 | 1.12
24 | CN(CCOc1ccccc1)c1nc(-c2cncc(F)c2)nc2ccccc12 [Compound 35] | 180 | 0.51
25 | CN(CCOc1ccccc1)c1nc(-c2ccc(F)nc2)nc2ccccc12 [Compound 36] | 220 | 1.58
26 | CN(CCOc1ccccc1)c1nc(-c2cncc(C(F)(F)F)c2)nc2ccccc12 [Compound 37] | 250 | 1.65
27 | CN(CCOc1ccccc1)c1nc(-c2cccnc2)nc2c(F)cccc12 [Compound 38] | 700 | 2.82
28 | CN(CCOc1ccccc1)c1nc(-c2cccnc2)nc2cc(F)ccc12 [Compound 39] | 450 | 2.82
29 | CN(CCOc1ccccc1)c1nc(-c2cccnc2)nc2ccc(F)cc12 [Compound 40] | 450 | 1.58
30 | CN(CCOc1ccccc1)c1nc(-c2cccnc2)nc2cccc(F)c12 [Compound 41] | 180 | 13.5
31 | CN(CCN(C)c1nc(-c2cccnc2)nc2ccccc12)c1ccccc1 [Compound 42] | 250 | 6.54
32 | CN(CCOc1ccccc1)c1nc(-c2cccnc2)nc2c(C(F)(F)F)cccc12 [Compound 43] | 400 | 1.81
33 | CN(CCOc1ccccc1)c1nc(-c2cccnc2)nc2cc(C(F)(F)F)ccc12 [Compound 44] | 180 | 4.12
34 | CN(CCOc1ccccc1)c1nc(-c2cccnc2)nc2ccc(C(F)(F)F)cc12 [Compound 45] | 120 | 5
35 | Cc1noc(C)c1-c1nc(N(C)CCOc2ccccc2)c2ccccc2n1 [Compound 47] | 175 | 2.21
36 | CN(CCOc1ccccc1)c1nc(-c2coc3ccccc23)nc2ccccc12 [Compound 49] | 120 | 2.42
37 | CN(CCOc1ccccc1)c1nc(-c2ccc(O)nc2)nc2ccccc12 [Compound 51] | 200 | 8.17
38 | CN(CCOc1ccc(CN)cc1)c1nc(-c2cccnc2)nc2ccccc12 [Compound 53] | 300 | 4.1
39 | CN(CCOc1ccccc1)c1nc(-c2ccc(N)nc2)nc2ccccc12 [Compound 54] | 170 | 3.1
40 | Cc1sc2nc(-c3cccnc3)nc(N(C)CCOc3ccccc3)c2c1C [Compound 55] | 458 | 39.8
41 | CN(CCOc1ccccc1)c1nc(-c2cccnc2)nc2c1CCC2 [Compound 56] | 295 | 3.3
42 | CN(CCOc1ccccc1)c1nc(-c2cccnc2)nc2c1CCCC2 [Compound 58] | 130 | 1.41

Row | SMILES | Emax [%] | AC50 [µM]
43 | CN(CCOc1ccccc1)c1nc(-c2cccnc2)nc2ccsc12 [Compound 59] | 333 | 5.01
44 | CN(CCOc1ccccc1)c1nc(-c2cccnc2)nc2sccc12 [Compound 60] | 624 | 3.16
45 | COC(=O)Cc1ccc(CNc2nc(-c3cccnc3)nc3ccccc23)cc1 [Compound 61] | 127 | 2.51
46 | CN(CCOc1ccccc1)c1nc(-c2cccnc2)nc2ncccc12 [Compound 62] |  | 7.08
47 | CN(CCOc1ccccc1)c1nc(-c2cccnc2)nc2[nH]ccc12 [Compound 63] | 461 | 3.98
48 | Cc1csc2c(N(C)CCOc3ccccc3)nc(-c3cccnc3)nc12 [Compound 64] | 222 | 2.51
49 | CN(CCOc1ccccc1)c1cc(-c2ccccc2)nc(-c2cccnc2)n1 [Compound 65] | 144 | 1
50 | CN(CCOc1ccccc1)c1nc(Nc2ccccc2)nc2ccccc12 [Compound 66] | 141 | 7.08
51 | CN(CCOc1ccccc1)c1nc(-c2cccnc2)nc2ccoc12 [Compound 67] | 787 | 10
52 | CN(CCOc1ccccc1)c1nc(-c2cccnc2)nc2c1SCC2 [Compound 68] | 327 | 12.6
53 | CN(CCOc1ccccc1)c1nc(-c2cncc(F)c2)nc2ncccc12 [Compound 69] |  | 7.1
54 | Cc1nn(Cc2ccccc2)c(C)c1Nc1nc(-c2cccnc2)nc2ccccc12 [Compound 70] | 191 | 8.91
55 | CN(CCOc1ccccc1)c1cc(N2CCOCC2)nc(-c2cccnc2)n1 [Compound 71] | 346 | 15.8
56 | CN(CCOc1ccccc1)c1nc(-c2cccnc2)nc2c1ccn2C [Compound 72] | 927 | 6.31
57 | CN(CCOc1ccccc1)c1nc(-c2cccnc2)nc2c1COC2 [Compound 73] | 330 | 5.62
58 | Cc1nn(Cc2ccccc2)c(C)c1N(C)c1nc(-c2cccnc2)nc2ccccc12 [Compound 74] | 194 | 10
59 | CN(CC1CCc2ccccc2C1)c1nc(-c2cccnc2)nc2ccccc12 (stereo not drawn) [Compound 75] | 115 | 2
60 | COC(=O)c1ccc(OCCN(C)c2nc(-c3cccnc3)nc3ccccc23)cc1 [Compound 76] | 255 | 4.47
61 | COC(=O)c1cccc(OCCN(C)c2nc(-c3cccnc3)nc3ccccc23)c1 [Compound 77] | 432 | 5.01
62 | CN(CCOc1ccccc1)c1nc(-c2cccnc2)nc2c1cnn2C [Compound 78] | 425 | 1.56
63 | CN(CCOc1ccc(C(=O)O)cc1)c1nc(-c2cccnc2)nc2ccccc12 [Compound 79] | 252 | 12.6
